Laboratory results: patent publication US20230085307A1, “PYRIDAZINONE COMPOUND AND HERBICIDE” (NISSAN CHEMICAL CORPORATION, priority 2019, published 2023)

How the values were obtained:
windgrass = assay: Test Example 4: herbicidal effect by soil treatment (Table 19, symbol L); assay type: in vivo, windgrass (Apera spica-venti)
Summary of the method: (§1)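 Applied as a water-diluted emulsion, the compound was sprayed onto soil covering newly sown seeds. Evaluation came three weeks after application, in a greenhouse held at 25° C. to 30° C.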

Japanese bulrush = assay: Test Example 1: herbicidal activity, application before weed generation under submerged conditions (Table 16, symbol B); assay type: in vivo, Japanese bulrush (Schoenoplectus juncoides)
Summary of the method: (§2)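 Emulsion formulation, water-diluted to set dose, was put onto the flooded surface (4 cm depth, alluvial soil) the same day weeds were sown and 2.5-leaf rice transplanted. After 3 weeks at 25-30 °C under glass, each species was rated 0 (≤5% kill) to 5 (≥90% kill).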

rice flat sedge = assay: Test Example 3: herbicidal effect by foliage application, Wagner pot (Table 18, symbol E); assay type: in vivo, rice flat sedge (Cyperus iria)
Summary of the method: (§3)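 Plants were sown in alluvial soil held under 0.1–0.5 cm standing water and grown 14 days in a greenhouse at 25–30 °C. An emulsifiable formulation, water-diluted to the set dose, was then sprayed onto the foliage, and effects were scored three weeks later using previously defined criteria.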

wild oat [1] = assay: Test Example 4: herbicidal effect by soil treatment (Table 19, symbol I); assay type: in vivo, wild oat (Avena fatua)
Summary of the method: as §1

wild oat [2] = assay: Test Example 5: herbicidal effect by foliage application, plastic box (Table 20, symbol I); assay type: in vivo, wild oat (Avena fatua); conditions: foliage application, 3 weeks after application
Summary of the method: (§4)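 Sow seeds spot-wise in sterilized diluvial soil; cover with ~1.5 cm soil. Grow 14 days in greenhouse, 25° C. to 30° C. Spray foliage with emulsion diluted to predetermined amount. Rate effect after 3 weeks.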

southern crabgrass = assay: Test Example 4: herbicidal effect by soil treatment (Table 19, symbol F); assay type: in vivo, southern crabgrass (Digitaria ciliaris)
Summary of the method: as §1

Italian ryegrass [3] = assay: Test Example 5: herbicidal effect by foliage application, plastic box (Table 20, symbol K); assay type: in vivo, Italian ryegrass (Lolium multiflorum); conditions: foliage application, 3 weeks after application
Summary of the method: as §4

late watergrass [4] = assay: Test Example 1: herbicidal activity, application before weed generation under submerged conditions (Table 16, symbol A); assay type: in vivo, late watergrass (Echinochloa oryzicola)
Summary of the method: as §2

barnyard grass = assay: Test Example 5: herbicidal effect by foliage application, plastic box (Table 20, symbol H); assay type: in vivo, barnyard grass (Echinochloa crus-galli); conditions: foliage application, 3 weeks after application
Summary of the method: as §4

Italian ryegrass [5] = assay: Test Example 4: herbicidal effect by soil treatment (Table 19, symbol K); assay type: in vivo, Italian ryegrass (Lolium multiflorum)
Summary of the method: as §1

late watergrass [6] = assay: Test Example 2: herbicidal activity, application during weed generation under submerged conditions (Table 17, symbol A); assay type: in vivo, late watergrass (Echinochloa oryzicola); conditions: application during weed generation, submerged conditions
Summary of the method: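 In this pot test, flooded alluvial soil (water depth 4 cm) holds all three species sown as a mixture. Once seedlings have one to two leaves, the compound's emulsion, thinned with water to the intended dose, is poured on the water; grading follows after three weeks on the earlier criteria.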

velvetleaf = assay: Test Example 5: herbicidal effect by foliage application, plastic box (Table 20, symbol M); assay type: in vivo, velvetleaf (Abutilon theophrasti); conditions: foliage application, 3 weeks after application
Summary of the method: as §4

green foxtail = assay: Test Example 5: herbicidal effect by foliage application, plastic box (Table 20, symbol G); assay type: in vivo, green foxtail (Setaria viridis); conditions: foliage application, 3 weeks after application
Summary of the method: as §4

lambsquarters = assay: Test Example 4: herbicidal effect by soil treatment (Table 19, symbol O); assay type: in vivo, lambsquarters (Chenopodium album)
Summary of the method: as §1

chickweed = assay: Test Example 4: herbicidal effect by soil treatment (Table 19, symbol P); assay type: in vivo, common chickweed (Stellaria media)
Summary of the method: as §1

Chinese sprangletop = assay: Test Example 3: herbicidal effect by foliage application, Wagner pot (Table 18, symbol D); assay type: in vivo, chinese sprangletop (Leptochloa chinensis)
Summary of the method: as §3

blackgrass = assay: Test Example 5: herbicidal effect by foliage application, plastic box (Table 20, symbol J); assay type: in vivo, blackgrass (Alopecurus myosuroides); conditions: foliage application, 3 weeks after application
Summary of the method: as §4

SMILES: Cc1nn(C)c(=O)c(-c2c(-c3ccc(OCCC4OCCO4)cc3)sc3ccccc23)c1O [1-223]
- L: windgrass, herbicidal effect rating (windgrass; AAH 246 g/ha): 0 (Herbicidal rate of 5% or less (almost no effect))
- Herbicidal effect on B: Japanese bulrush (grade 0-5) (Japanese bulrush; 246 g/ha applied herbicide): 4 (Herbicidal rate of 70% or more and less than 90%)
- herbicidal effect on E (rice flat sedge), rating 0-5 (rice flat sedge; 246 g/ha): 4 (Herbicidal rate of 70% or more and less than 90%)
- I: wild oat, herbicidal effect rating (wild oat [1]; AAH 246 g/ha): 0 (Herbicidal rate of 5% or less (almost no effect))
- effect on wild oat (I) (wild oat [2]; 246 g/ha): 3 (Herbicidal rate of 40% or more and less than 70%)
- F: southern crabgrass, herbicidal effect rating (southern crabgrass; AAH 246 g/ha): 0 (Herbicidal rate of 5% or less (almost no effect))
- effect on Italian ryegrass (K) (Italian ryegrass [3]; 246 g/ha): 3 (Herbicidal rate of 40% or more and less than 70%)
- Herbicidal effect on A: late watergrass (grade 0-5) (late watergrass [4]; 246 g/ha applied herbicide): 5 (Herbicidal rate of 90% or more (almost completely withered))
- effect on barnyard grass (H) (barnyard grass; 246 g/ha): 5 (Herbicidal rate of 90% or more (almost completely withered))
- K: Italian ryegrass, herbicidal effect rating (Italian ryegrass [5]; AAH 246 g/ha): 0 (Herbicidal rate of 5% or less (almost no effect))
- herbicidal effect rating, A: late watergrass (late watergrass [6]; AAH 246 g/ha): 3 (Herbicidal rate of 40% or more and less than 70%)
- effect on velvetleaf (M) (velvetleaf; 246 g/ha): 5 (Herbicidal rate of 90% or more (almost completely withered))
- effect on green foxtail (G) (green foxtail; 246 g/ha): 5 (Herbicidal rate of 90% or more (almost completely withered))
- O: lambsquarters, herbicidal effect rating (lambsquarters; AAH 246 g/ha): 3 (Herbicidal rate of 40% or more and less than 70%)
- P: chickweed, herbicidal effect rating (chickweed; AAH 246 g/ha): 0 (Herbicidal rate of 5% or less (almost no effect))
- herbicidal effect on D (Chinese sprangletop), rating 0-5 (Chinese sprangletop; 246 g/ha): 5 (Herbicidal rate of 90% or more (almost completely withered))
- effect on blackgrass (J) (blackgrass; 246 g/ha): 2 (Herbicidal rate of 20% or more and less than 40%)

SMILES: CSCCSCc1ccc(-c2sc3ccccc3c2-c2c(O)c(C)nn(C)c2=O)cc1 [1-253]
- L: windgrass, herbicidal effect rating (windgrass; AAH 320 g/ha): 0 (Herbicidal rate of 5% or less (almost no effect))
- Herbicidal effect on B: Japanese bulrush (grade 0-5) (Japanese bulrush; 320 g/ha applied herbicide): 3 (Herbicidal rate of 40% or more and less than 70%)
- herbicidal effect on E (rice flat sedge), rating 0-5 (rice flat sedge; 320 g/ha): 3 (Herbicidal rate of 40% or more and less than 70%)
- I: wild oat, herbicidal effect rating (wild oat [1]; AAH 320 g/ha): 0 (Herbicidal rate of 5% or less (almost no effect))
- effect on wild oat (I) (wild oat [2]; 320 g/ha): 0 (Herbicidal rate of 5% or less (almost no effect))
- F: southern crabgrass, herbicidal effect rating (southern crabgrass; AAH 320 g/ha): 0 (Herbicidal rate of 5% or less (almost no effect))
- effect on Italian ryegrass (K) (Italian ryegrass [3]; 320 g/ha): 4 (Herbicidal rate of 70% or more and less than 90%)
- Herbicidal effect on A: late watergrass (grade 0-5) (late watergrass [4]; 320 g/ha applied herbicide): 3 (Herbicidal rate of 40% or more and less than 70%)
- effect on barnyard grass (H) (barnyard grass; 320 g/ha): 5 (Herbicidal rate of 90% or more (almost completely withered))
- K: Italian ryegrass, herbicidal effect rating (Italian ryegrass [5]; AAH 320 g/ha): 0 (Herbicidal rate of 5% or less (almost no effect))
- herbicidal effect rating, A: late watergrass (late watergrass [6]; AAH 320 g/ha): 3 (Herbicidal rate of 40% or more and less than 70%)
- effect on velvetleaf (M) (velvetleaf; 320 g/ha): 5 (Herbicidal rate of 90% or more (almost completely withered))
- effect on green foxtail (G) (green foxtail; 320 g/ha): 3 (Herbicidal rate of 40% or more and less than 70%)
- O: lambsquarters, herbicidal effect rating (lambsquarters; AAH 320 g/ha): 3 (Herbicidal rate of 40% or more and less than 70%)
- P: chickweed, herbicidal effect rating (chickweed; AAH 320 g/ha): 3 (Herbicidal rate of 40% or more and less than 70%)
- herbicidal effect on D (Chinese sprangletop), rating 0-5 (Chinese sprangletop; 320 g/ha): 3 (Herbicidal rate of 40% or more and less than 70%)
- effect on blackgrass (J) (blackgrass; 320 g/ha): 0 (Herbicidal rate of 5% or less (almost no effect))
